Measurements from US4012345A, “Des-(Ala^1, Gly^2), Met^11 -SRIF and intermediates” (American Home Products Corporation, priority 1976, dated 1977).
Positions of bridges follow the written chain, without caps; N, C: chain ends. Residues, ends and D or L forms follow the SMILES beside them.

What was measured:
[1] = test system: somatotropin; settings: Brazeau et al., Science, 179 pp 77-79 (1973); cited from earlier work
[2] = test system: growth hormone; assay: Arginine-stimulated plasma growth hormone in Nembutal-anesthetized rats (radioimmunoassay); type: in vivo, albino male rats; settings: *p < 0.01
Description: (§1) The in vivo activity of the compounds of this invention was established by subjecting des-(Ala^1, Gly2), Met^11 -Somatostatin, as a representative compound of the invention, to the following standard test procedure: Three groups of ten albino male rats were arranged to provide a control group, a group for observation of Somatostatin activity as the standard and a group for the study of the test compound des-(Ala^1, Gly^2), Met^11 -Somatostatin. Nembutal (50 mg/kg) was injected intraperitoneally into each rat. Fifteen minutes later a subcutaneous injection of the test compound, somatostatin and physiological saline (control) was administered separately to each of the three groups of rats. Ten minutes later 0.5 milliliters of arginine (300 mg/ml, pH 7.2) was injected into the rats heart. The rats were decapitated five minutes later and their blood was collected in Trasylol -EDTA. Aliquot samples were radioimmunoassayed for growth hormone and insulin.

[3] = test system: insulin; assay: Arginine-stimulated plasma insulin in Nembutal-anesthetized rats (radioimmunoassay); type: in vivo, albino male rats
Description: as §1

Molecule	inhibition of secretion of somatotropin (growth hormone) [1]	GH ([2]; Experiment 2, dose 100 μg/kg subcutaneous, control 176 ± 29)	GH ([2]; Experiment 3, dose 1500 μg/kg subcutaneous, control 123 ± 16)	Insulin ([3]; Experiment 1, dose 400 μg/kg subcutaneous, control 172 ± 11, *p < 0.01)	Insulin ([3]; Experiment 3, dose 1500 μg/kg subcutaneous, control 206 ± 19)
H-Ala-Gly-Cys-Lys-Asn-Phe-Phe-Trp-Lys-Thr-Phe-Thr-Ser-Cys-OH (H-AGCKNFFWKTFTSC-OH; ends and bridges not checked) [linear form of somatostatin]	same biological activity as somatostatin obtained from a natural source	–	–	–	–
CSCC[C@@H]1NC(=O)[C@H]([C@@H](C)O)NC(=O)[C@H](CCCCN)NC(=O)[C@H](Cc2c[nH]c3ccccc23)NC(=O)[C@H](Cc2ccccc2)NC(=O)[C@H](Cc2ccccc2)NC(=O)[C@H](CC(N)=O)NC(=O)[C@H](CCCCN)NC(=O)[C@@H](N)CSSC[C@@H](C(=O)O)NC(=O)[C@H](CO)NC(=O)[C@H]([C@@H](C)O)NC1=O [Example 3, L-Cysteinyl-L-lysyl-L-asparaginyl-L-phenylalanyl-L-phenylalanyl-L-tryptophyl-L-lysyl-L-threonyl-L-methionyl-L-threonyl-L-seryl-L-cysteine (1-12) disulfide] (H-CKNFFWKTMTSC-OH; disulfide 1-12)	–	72 ± 12 ng/mL	42 ± 10 ng/mL	143 ± 13 μU/ml	128 ± 13 μU/ml
